Literature values as cited in patent US20030199496A1, “Pharmaceutical compositions containing alpha3beta4 nicotinic receptor antagonists and methods of their use” (priority 2002, published 2003).

System: Purkinje nerve cells

## COCC[C@H]1CC2CN3CCc4c([nH]c5ccccc45)[C@](C(=O)OC)(C2)[C@H]13 [18-MC, 18-methoxycoronaridine]
At certain doses
  neurotoxicity, especially on Purkinje nerve cells: devoid of these undesirable characteristics
Human and animal subjects
  tremors: devoid of these undesirable characteristics
